Laboratory results: US11414416B1, “Compounds and uses thereof” (Foghorn Therapeutics Inc., priority 2019, dated 2022)
Like-named read-outs stand apart in the source and are kept apart here.

Molecular target: Nanoluciferase-BRD9 fusion protein (Homo sapiens (Human), UniProt Q9H8M2)
Assay: SYO1 BRD9 NanoLuc degradation assay
Format: cell-based
Settings: SYO-1 cells expressing 3×FLAG-NLuc-BRD9, 6 hours; for DC50: read-out: SYO1 BRD9-NanoLuc degradation IC50
Method in brief: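 Degradation was read as loss of nanoluciferase signal (Nano-Glo) after 6 h compound exposure in a stable SYO-1 line carrying 3×FLAG-NLuc-BRD9 (8000 cells/well). Normalised between DMSO (high) and a 1 μM known BRD9 degrader (low).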

Sequence of Nanoluciferase-BRD9 fusion protein (Q9H8M2 whole entry, the tested form may be a part): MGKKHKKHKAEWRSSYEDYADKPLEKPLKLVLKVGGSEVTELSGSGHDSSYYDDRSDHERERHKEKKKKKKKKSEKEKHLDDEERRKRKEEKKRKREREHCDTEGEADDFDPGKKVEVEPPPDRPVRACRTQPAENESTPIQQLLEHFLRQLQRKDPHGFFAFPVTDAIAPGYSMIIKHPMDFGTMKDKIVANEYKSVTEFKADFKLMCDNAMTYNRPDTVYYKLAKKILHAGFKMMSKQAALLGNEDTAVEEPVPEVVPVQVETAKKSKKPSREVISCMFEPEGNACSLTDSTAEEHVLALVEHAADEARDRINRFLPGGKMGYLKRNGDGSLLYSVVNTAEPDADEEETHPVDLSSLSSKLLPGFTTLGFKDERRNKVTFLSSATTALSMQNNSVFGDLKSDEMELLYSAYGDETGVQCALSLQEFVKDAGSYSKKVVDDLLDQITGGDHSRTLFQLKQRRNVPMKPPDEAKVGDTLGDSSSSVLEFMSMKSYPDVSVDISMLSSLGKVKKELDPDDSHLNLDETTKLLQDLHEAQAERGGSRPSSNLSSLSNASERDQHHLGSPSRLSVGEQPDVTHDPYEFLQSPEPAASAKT

| SMILES | DC50 (Table 5C) [nM] | DC50 (Table 5B) [nM] | other results |
| --- | --- | --- | --- |
| COc1cc(-c2cn(C)c(=O)c3cnccc23)cc(OC)c1CN1CCC2(CC1)CN(c1cncc(C(=O)NC3CCC(=O)NC3=O)n1)C2 (stereo not shown) [Compound D473] | > 1000 |  |  |
| COc1cc(-c2cn(C)c(=O)c3cnccc23)cc(OC)c1CN(C)CCCCNC1CC2(CCN(c3ccc4c(c3)C(=O)N(C3CCC(=O)NC3=O)C4=O)CC2)C1 (stereo not shown) [Compound D247] |  | < 10 |  |
| COc1cc(-c2cn(C)c(=O)c3cnccc23)cc(OC)c1CN1CCC2(CC1)CCN(CCCC#Cc1ccc3c(c1)C(=O)N(C1CCC(=O)NC1=O)C3=O)C2 (stereo not shown) [Compound D213] |  | < 10 |  |
| COc1cc(-c2cn(C)c(=O)c3cnccc23)cc(OC)c1CN1CCC2(CC1)CCN(C(=O)C#Cc1ccc3c(c1)C(=O)N(C1CCC(=O)NC1=O)C3=O)C2 (stereo not shown) [Compound D240] |  | < 10 |  |
| COc1cc(-c2cn(C)c(=O)c3cnccc23)cc(OC)c1CN1CCC2C(C1)CN2C(=O)CC#Cc1ccc2c(c1)C(=O)N(C1CCC(=O)NC1=O)C2=O (stereo not shown) [Compound D315] |  | < 10 |  |
| COc1cc(-c2cn(C)c(=O)c3cnccc23)cc(OC)c1CN1CCN(CC#Cc2ccc3c(c2)C(=O)N(C2CCC(=O)NC2=O)C3=O)CC1 (stereo not shown) [Compound D237] |  | < 10 |  |
| COc1cc(-c2cn(C)c(=O)c3cnccc23)cc(OC)c1CN(C)C(=O)CCCCN1CC2(CCC(Oc3ccc4c(c3)C(=O)N(C3CCC(=O)NC3=O)C4=O)C2)C1 (stereo not shown) [Compound D207] |  | < 10 |  |
| COc1cc(-c2cn(C)c(=O)c3cnccc23)cc(OC)c1CN1CC(CC(=O)N[C@@H]2C[C@]23CCN(c2ccc4c(c2)C(=O)N(C2CCC(=O)NC2=O)C4=O)C3)C1 (stereo partly shown) [Compound D231] |  | 100 to 1000 |  |
| COc1cc(-c2cn(C)c(=O)c3cn(C)nc23)cc(OC)c1CN1CCC2(CC1)CN(c1ccc3c(c1)C(=O)N(C1CCC(=O)NC1=O)C3=O)C2 (stereo not shown) [Compound D415] | < 10 |  |  |
| COc1cc(-c2cn(C)c(=O)c3cnccc23)cc(OC)c1CN1CC2(CCN(CCCC#Cc3ccc4c(c3)C(=O)N(C3CCC(=O)NC3=O)C4=O)CC2)C1 (stereo not shown) [Compound D212] |  | 10 to 100 |  |
| COc1cc(-c2cn(C)c(=O)c3cnccc23)cc(OC)c1CN1CCC2(CC1)CN(c1ccc3c(c1)C(=O)N(C1CCC(=O)NC1=O)C3)C2 (stereo not shown) [Compound D377] | < 10 |  |  |
| COc1cc(-c2cn(C)c(=O)c3cnccc23)cc(OC)c1CN1CCC2(CC1)CN(c1nccc(C(=O)NC3CCC(=O)NC3=O)n1)C2 (stereo not shown) [Compound D472] | > 1000 |  |  |
| COc1cc(-c2cn(C)c(=O)c3cnccc23)cc(OC)c1CN1CC2(C1)CN(C(=O)C#Cc1ccc3c(c1)C(=O)N(C1CCC(=O)NC1=O)C3=O)C2 (stereo not shown) [Compound D185] |  | < 10 |  |
| COc1cc(-c2cn(C)c(=O)c3cnccc23)cc(OC)c1CN1CC(CCN2CCC3(CC2)CC(Oc2ccc4c(c2)C(=O)N(C2CCC(=O)NC2=O)C4=O)C3)C1 (stereo not shown) [Compound D305] |  | 100 to 1000 |  |
| COc1cc(-c2cn(C)c(=O)c3cnccc23)cc(OC)c1CN(C)CCCn1cc(COc2ccc3c(c2)C(=O)N(C2CCC(=O)NC2=O)C3=O)nn1 (stereo not shown) [Compound D282] |  | 100 to 1000 |  |
| COc1cc(-c2cn(C)c(=O)c3cnccc23)cc(OC)c1CN1CCC2(C1)CN(C(=O)CC#Cc1ccc3c(c1)C(=O)N(C1CCC(=O)NC1=O)C3=O)C2 (stereo not shown) [Compound D314] |  | 10 to 100 |  |
| COc1cc(-c2ccn3c(=O)n(C)ccc23)cc(OC)c1CN1CCC2(CC1)CN(c1ccc3c(c1)C(=O)N(C1CCC(=O)NC1=O)C3)C2 (stereo not shown) [Compound D435] | > 1000 |  |  |
| COc1cc(-c2cn(C)c(=O)c3cnccc23)cc(OC)c1CN(C)CCOCCOCCNc1cccc2nc(C)n(C3CCC(=O)NC3=O)c(=O)c12 (stereo not shown) [DD3] |  | > 1000 |  |
| COc1cc(-c2cc(C(F)F)c(=O)n(C)c2)cc(OC)c1CN1CCC2(CC1)CN(c1ccc3c(c1)C(=O)N(C1CCC(=O)NC1=O)C3=O)C2 (stereo not shown) [Compound D341] |  | < 10 |  |
| COc1cc(-c2cn(C)c(=O)c3cnccc23)cc(OC)c1CN(C)CCCn1cc(CCOc2ccc3c(c2)C(=O)N(C2CCC(=O)NC2=O)C3=O)nn1 (stereo not shown) [Compound D283] |  | 100 to 1000 |  |
| COc1cc(-c2c(C)n(C)c(=O)c3[nH]c(C)cc23)cc(OC)c1CN1CCC2(CC1)CN(c1ccc3c(c1)C(=O)N(C1CCC(=O)NC1=O)C3)C2 (stereo not shown) [Compound D437] | > 1000 |  |  |
| COc1cc(-c2nc(N)nc3[nH]cnc23)cc(OC)c1CN1CCC2(CC1)CN(c1ccc3c(c1)C(=O)N(C1CCC(=O)NC1=O)C3)C2 (stereo not shown) [DD15] | 10 to 100 |  |  |
| C/C=C/Cn1cc(-c2ccc(CN3CCN(S(=O)(=O)c4ccc5c(c4)C(=O)N(C4CCC(=O)NC4=O)C5)CC3)c(Cl)c2)n2cncc2c1=O (stereo not shown) [Compound D464] |  |  | IC50 (Table 5C): > 1000 nM |
| COc1cc(-c2cn(C)c(=O)c3cn(C)nc23)cc(OC)c1CN1CCC2(CC1)CN(c1ccc3c(c1)C(=O)N(C1CCC(=O)NC1=O)C3)C2 (stereo not shown) [Compound D416] | < 10 |  |  |
| COc1cc(-c2cn(C)c(=O)c3cnccc23)cc(OC)c1CN(C)C1CCN(CCOc2ccc3c(c2)C(=O)N(C2CCC(=O)NC2=O)C3=O)CC1 (stereo not shown) [Compound D178] |  | < 10 |  |

| SMILES | DC50 (Table 5C) [nM] | DC50 (Table 5B) [nM] | other results |
| --- | --- | --- | --- |
| COc1cc(-c2cc(C)c(=O)n(C)c2C)cc(OC)c1CN1CCN(c2ccc3c(c2)CN(C2CCC(=O)NC2=O)C3=O)CC1 (stereo not shown) [Compound D423] | < 10 |  |  |
| COc1cc(-c2cc(C)c(=O)n(C)c2)cc(OC)c1CN1CCN(c2ccc3c(c2)C(=O)N(C2CCC(=O)NC2=O)C3)CC1 (stereo not shown) [Compound D452] | < 10 |  |  |
| COc1cc(-c2cn(C)c(=O)c3cnccc23)cc(OC)c1CN(C)C(=O)CCCCN1CCC2(CCN(c3ccc4c(c3)C(=O)N(C3CCC(=O)NC3=O)C4=O)C2)C1 (stereo not shown) [Compound D188] |  | < 10 |  |
| COc1cc(-c2cn(C)c(=O)c3cnccc23)cc(OC)c1CN(C)CCCCN1CCC2(CC1)CN(c1ccc3c(c1)C(=O)N(C1CCC(=O)NC1=O)C3=O)C2 (stereo not shown) [Compound D222] |  | < 10 |  |
| COc1cc(-c2cn(C)c(=O)c3cnccc23)cc(OC)c1CN1CCN(C(=O)C#Cc2ccc3c(c2)C(=O)N(C2CCC(=O)NC2=O)C3=O)CC1 (stereo not shown) [Compound D216] |  | < 10 |  |
| COc1cc(-c2cn(C)c(=O)c3cnccc23)cc(OC)c1CN(C)CCn1cc(CN2CC(Oc3ccc4c(c3)C(=O)N(C3CCC(=O)NC3=O)C4=O)C2)nn1 (stereo not shown) [Compound D276] |  | 10 to 100 |  |
| COc1cc(-c2cn(C)c(=O)c3cnccc23)cc(OC)c1Cn1cc(COC2CN(c3ccc4c(c3)C(=O)N(C3CCC(=O)NC3=O)C4=O)C2)nn1 (stereo not shown) [Compound D271] |  | < 10 |  |
| COc1cc(-c2cn(C)c(=O)cn2)cc(OC)c1CN1CCC2(CC1)CN(c1ccc3c(c1)C(=O)N(C1CCC(=O)NC1=O)C3)C2 (stereo not shown) [Compound D429] | > 1000 |  |  |
| COc1cc(-c2cc(C(F)F)c(=O)n(C)c2)cc(OC)c1CN1CCC(C#Cc2ccc3c(c2)C(=O)N(C2CCC(=O)NC2=O)C3)CC1 (stereo not shown) [Compound D444] | < 10 |  |  |
| COc1cc(-c2cn(C)c(=O)c3cnccc23)cc(OC)c1CN1CC(N)(C(=O)NCCCCCCCCNc2cccc3c2C(=O)N(C2CCC(=O)NC2=O)C3=O)C1 (stereo not shown) [Compound D17, 3-amino-1-[[2,6-dimethoxy-4-(2-methyl-1-oxo-1,2-dihydro-2,7-naphthyridin-4-yl)phenyl]methyl]-N-(8-[[2-(2,6-dioxopiperidin-3-yl)-1,3-dioxo-2,3-dihydro-1H-isoindol-4-yl]amino]octyl)azetidine-3-carboxamide] |  |  | DC50 (Table 5A): < 10 nM |
| COc1cc(-c2cn(C)c(=O)c3cn(C)nc23)cc(OC)c1CN1CCN(CCC2CCN(c3ccc4c(c3)C(=O)N(C3CCC(=O)NC3=O)C4)CC2)CC1 (stereo not shown) [Compound D400] | < 10 |  |  |
| COc1cc(-c2cn(C)c(=O)c3nc(O)ccc23)cc(OC)c1CN1CCC(CN2CCC3(CC2)CC(Oc2ccc4c(c2)CN(C2CCC(=O)NC2=O)C4=O)C3)CC1 (stereo not shown) [Compound D371] |  | < 10 |  |
| COc1cc(-c2cn(C)c(=O)c3cnccc23)cc(OC)c1CN(C)CCn1cc(COCCOc2ccc3c(c2)C(=O)N(C2CCC(=O)NC2=O)C3=O)nn1 (stereo not shown) [Compound D275] |  | < 10 |  |
| COc1cc(-c2cn(C)c(=O)c3cnccc23)cc(OC)c1CN1CCC2(CC1)CN(C(=O)CCC#Cc1ccc3c(c1)C(=O)N(C1CCC(=O)NC1=O)C3=O)C2 (stereo not shown) [Compound D217] |  | < 10 |  |
| COc1cc(-c2cn(C)c(=O)c3cnn(C)c23)cc(OC)c1CN1CCC2(CC1)CN(c1ccc3c(c1)CN(C1CCC(=O)NC1=O)C3=O)C2 (stereo not shown) [Compound D411] | < 10 |  |  |
| COc1cc(-c2cn(C)c(=O)c3cnccc23)cc(OC)c1CN1CC2(CCN(C(=O)CCC#Cc3ccc4c(c3)C(=O)N(C3CCC(=O)NC3=O)C4=O)C2)C1 (stereo not shown) [Compound D218] |  | < 10 |  |
| C=CCn1cc(-c2cc(OC)c(CN3CCC4(C3)CN(c3ccc5c(c3)C(=O)N(C3CCC(=O)NC3=O)C5)C4)c(OC)c2)cc(C(F)F)c1=O (stereo not shown) [Compound D404] | < 10 |  |  |
| CCn1cc2c(=O)n(C)cc(-c3cc(OC)c(CN4CCC5(CC4)CN(c4ccc6c(c4)C(=O)N(C4CCC(=O)NC4=O)C6)C5)c(OC)c3)c2n1 (stereo not shown) [Compound D417] | < 10 |  |  |
| COc1cc(-c2cc(C(F)F)c(=O)n(C)c2)cc(OC)c1CN1CCC2(C1)CN(c1ccc3c(c1)C(=O)N(C1CCC(=O)NC1=O)C3=O)C2 (stereo not shown) [Compound D406] | < 10 |  |  |
| COc1cc(-c2cn(C)c(=O)c3cnccc23)cc(OC)c1CN1CC(Oc2ccc3c(c2)C(=O)N(C2CCC(=O)NC2=O)C3=O)C1 (stereo not shown) [Compound D372] | < 10 |  |  |
| COc1cc(-c2cn(C)c(=O)c3cnccc23)cc(OC)c1CN1CCC2(C1)CN(CC#Cc1ccc3c(c1)C(=O)N(C1CCC(=O)NC1=O)C3=O)C2 (stereo not shown) [Compound D268] |  | < 10 |  |
| COc1cc(-c2cc(C)c(=O)n(C)c2C)cc(OC)c1CN1CCC(CN2CCC3(CC2)CN(c2ccc4c(c2)C(=O)N(C2CCC(=O)NC2=O)C4)C3)CC1 (stereo not shown) [Compound D397] | < 10 |  |  |
| COc1cc(-c2cn(C)c(=O)c3ccccc23)cc(OC)c1CN1CC(CN2CCC3(CC2)CN(c2ccc4c(c2)C(=O)N(C2CCC(=O)NC2=O)C4)C3)C1 (stereo not shown) [Compound D356] |  | < 10 |  |
| COc1cc(-c2cn(C)c(=O)c3cnccc23)cc(OC)c1CN1CC(n2cc(COC3CN(c4ccc5c(c4)C(=O)N(C4CCC(=O)NC4=O)C5=O)C3)nn2)C1 (stereo not shown) [Compound D301] |  | < 10 |  |
